target: HPK1 (Homo sapiens (Human), UniProt Q92918); assay: HPK1 Inhibition Assay (ADP-Glo kinase assay); assay type: biochemical; details: ATP 10 μM
How it was run: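 ADP-Glo luminescence read-out after 1 h room-temperature kinase reaction with 10 μM ATP and 0.1 μg/ml MBP. Recombinant human HPK1 at 7.5 ng/μl; buffer 40 mM Tris pH 7.5, 20 mM MgCl2. Compounds serially diluted 5-fold over 10 points from 10 mM DMSO stock.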

Sequence of HPK1 (Q92918 1-346 limits assumed): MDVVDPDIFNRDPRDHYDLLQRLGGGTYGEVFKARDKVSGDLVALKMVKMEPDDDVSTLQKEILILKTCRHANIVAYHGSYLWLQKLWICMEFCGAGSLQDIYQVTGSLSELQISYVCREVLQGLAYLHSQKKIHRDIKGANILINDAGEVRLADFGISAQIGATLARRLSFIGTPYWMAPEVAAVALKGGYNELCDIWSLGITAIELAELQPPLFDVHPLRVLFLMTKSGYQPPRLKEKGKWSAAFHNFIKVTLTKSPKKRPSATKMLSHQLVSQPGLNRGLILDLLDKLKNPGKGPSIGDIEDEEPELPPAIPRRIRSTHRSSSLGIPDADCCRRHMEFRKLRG

Compared with `N#Cc1ccncc1-c1ccc(NC(=O)c2ccc(=O)n(-c3c(F)cccc3F)n2)c(N2C[C@H](N)C[C@H]2CO)c1` [Example 351, N-(2-((2S,4R)-4-amino-2-(hydroxymethyl)pyrrolidin-1-yl)-4-(4-cyanopyridin-3-yl)phenyl)-1-(2,6-difluorophenyl)-6-oxo-1,6-dihydropyridazine-3-carboxamide], `Cc1nc2c(N3C[C@@H](N)C[C@H]3CO)c(NC(=O)c3ccc(=O)n(-c4c(F)cccc4F)n3)ccc2n1C` [Example 68, N-(4-((2S,4S)-4-amino-2-(hydroxymethyl)amidazole-1-yl)-1,2-dimethyl-1H-benzo[d]amidazole-5-yl)-1-(2,6-difluorophenyl)-6-oxo-1,6-dihydropyridazine-3-carboxamide] is higher in IC50: under 100 nM for the first, 100 to 1000 nM for the second. The first is the more potent here.

`C[C@@H]1CN(c2c(NC(=O)c3ccc(=O)n(-c4c(F)cccc4F)n3)ccc3nn(C(C)(C)C)cc23)C[C@@H]1N` [Example 234, N-[4-[(3R,4R)-3-amino-4-methyl-pyrrolidin-1-yl]-2-tert-butyl-indazol-5-yl]-1-(2,6-difluorophenyl)-6-oxo-pyridazine-3-carboxamide] and `CC(C)n1cc2c(N3C[C@H](C)[C@@H](N)C3)c(NC(=O)c3ccc(=O)n(-c4c(F)cccc4F)n3)ccc2n1` [Example 231, N-(4-((3R,4S)-3-amino-4-methylpyrrolidin-1-yl)-2-isopropyl-2H-indazol-5-yl)-1-(2,6-difluorophenyl)-6-oxo-1,6-dihydropyridazine-3-carboxamide] cannot be ordered by IC50: under 100 nM for the first, under 100 nM for the second.

`CC(C)n1ncc2c(N3CC[C@@H](CN)C3)c(NC(=O)c3ccc(=O)n(-c4c(F)cccc4F)n3)cc(F)c21` [Example 204, (S)-N-(4-(3-(aminomethyl)pyrrolidin-1-yl)-7-fluoro-1-isopropyl-1H-indazol-5-yl)-1-(2,6-difluorophenyl)-6-oxo-1,6-dihydropyridazine-3-carboxamide] and `Cc1cc(NC(=O)c2ccc(=O)n(-c3c(F)cccc3F)n2)c(N2CC[C@@H](N)C2)c2cnn(C(C)C)c12` [Example 185, (R)-N-(4-(3-aminopyrrolidin-1-yl)-1-isopropyl-7-methyl-1H-indazol-5-yl)-1-(2,6-difluorophenyl)-6-oxo-1,6-dihydropyridazine-3-carboxamide] cannot be ordered by IC50: under 100 nM for the first, under 100 nM for the second.

`C[C@@H]1CN(c2c(NC(=O)c3ccc(=O)n(-c4c(F)cccc4F)n3)ccc3nn(C4CCN(C)CC4)cc23)C[C@@H]1N` [Example 308, N-(4-((3R,4R)-3-amino-4-methylpyrrolidin-1-yl)-2-(1-methylpiperidin-4-yl)-2H-indazol-5-yl)-1-(2,6-difluorophenyl)-6-oxo-1,6-dihydropyridazine-3-carboxamide] and `C[C@@H]1CN(c2c(NC(=O)c3ccc(=O)n(-c4c(F)cccc4F)n3)ccc3nn(C4CCC(F)(F)CC4)cc23)C[C@@H]1N` [Example 332, N-(4-((3R,4R)-3-amino-4-methylpyrrolidin-1-yl)-2-(4,4-difluorocyclohexyl)-2H-indazol-5-yl)-1-(2,6-difluorophenyl)-6-oxo-1,6-dihydropyridazine-3-carboxamide] cannot be ordered by IC50: under 100 nM for the first, under 100 nM for the second.

`[2H]C([2H])([2H])n1ncc2c(N3C[C@@H](C)[C@@H](N)C3)c(NC(=O)c3ccc(=O)n(-c4c(F)cccc4F)n3)ccc21` [Example 171, N-(4-((3R,4R)-3-amino-4-methylpyrrolidin-1-yl)-1-(methyl-d3)-1H-indazol-5-yl)-1-(2,6-difluorophenyl)-6-oxo-1,6-dihydropyridazine-3-carboxamide] and `C[C@@H]1CN(c2c(NC(=O)c3ccc(=O)n(-c4c(F)cccc4F)n3)ccc3c2cnn3CC(F)(F)F)C[C@@H]1N` [Example 291, N-(4-((3R,4R)-3-amino-4-methylpyrrolidin-1-yl)-1-(2,2,2-trifluoroethyl)-1H-indazol-5-yl)-1-(2,6-difluorophenyl)-6-oxo-1,6-dihydropyridazine-3-carboxamide] cannot be ordered by IC50: under 100 nM for the first, under 100 nM for the second.

`CC1(C)CN(c2c(NC(=O)c3ccc(=O)n(-c4c(F)cccc4F)n3)ccc3nn(C(C)(C)C)cc23)C[C@H]1N` [Example 237, (S)-N-(4-(4-amino-3,3-dimethylpyrrolidin-1-yl)-2-(tert-butyl)-2H-indazol-5-yl)-1-(2,6-difluorophenyl)-6-oxo-1,6-dihydropyridazine-3-carboxamide] and `CC1(C)CN(c2c(NC(=O)c3ccc(=O)n(-c4c(F)cccc4F)n3)ccc3nn(C(C)(C)C)cc23)C[C@@H]1N` [Example 236, (R)-N-(4-(4-amino-3,3-dimethylpyrrolidin-1-yl)-2-(tert-butyl)-2H-indazol-5-yl)-1-(2,6-difluorophenyl)-6-oxo-1,6-dihydropyridazine-3-carboxamide] cannot be ordered by IC50: under 100 nM for the first, under 100 nM for the second.

`C[C@@H]1CN(c2c(NC(=O)c3ccc(=O)n(-c4c(F)cccc4F)n3)ccc3c2ncn3C2CCOCC2)C[C@@H]1N` [Example 153, N-(4-((3R,4R)-3-amino-4-methylpyrrolidin-1-yl)-1-(tetrahydro-2H-pyran-4-yl)-1H-benzo[d]imidazol-5-yl)-1-(2,6-difluorophenyl)-6-oxo-1,6-dihydropyridazine-3-carboxamide] and `C[C@H]1CN(c2c(NC(=O)c3ccc(=O)n(-c4c(F)cccc4F)n3)ccc3c2cnn3[C@@H]2CCOC2)C[C@@H]1N` [Example 259, N-(4-((3R,4S)-3-amino-4-methylpyrrolidin-1-yl)-1-((R)-tetrahydrofuran-3-yl)-1H-indazol-5-yl)-1-(2,6-difluorophenyl)-6-oxo-1,6-dihydropyridazine-3-carboxamide] cannot be ordered by IC50: under 100 nM for the first, under 100 nM for the second.

`CC(C)c1nc2c(N3CC[C@](N)(C(F)(F)F)C3)c(NC(=O)c3ccc(=O)n(-c4c(F)cccc4F)n3)ccc2n1C` (single isomer, unassigned) [Example 139] and `CC(C)c1nc2c(N3C[C@H](C)[C@@H](N)C3)c(NC(=O)c3ccc(=O)n(-c4c(F)cccc4F)n3)ccc2n1C` [Example 111, N-(4-((3R,4S)-3-amino-4-methylpyrrolidin-1-yl)-2-isopropyl-1-methyl-1H-benzo[d]imidazol-5-yl)-1-(2,6-difluorophenyl)-6-oxo-1,6-dihydropyridazine-3-carboxamide] cannot be ordered by IC50: under 100 nM for the first, under 100 nM for the second.

`CC1(C)CN(c2c(NC(=O)c3ccc(=O)n(-c4c(F)cccc4F)n3)ccc3c2cnn3[C@@H]2CCOC2)C[C@H]1N` [Example 268, N-(4-((S)-4-amino-3,3-dimethylpyrrolidin-1-yl)-1-((R)-tetrahydrofuran-3-yl)-1H-indazol-5-yl)-1-(2,6-difluorophenyl)-6-oxo-1,6-dihydropyridazine-3-carboxamide] and `Cc1nc2c(N3C[C@H](N)C(C)(C)C3)c(NC(=O)c3ccc(=O)n(-c4c(F)cccc4F)n3)ccc2n1[C@H]1CCOC1` [Example 150, N-(4-((R)-4-amino-3,3-dimethylpyrrolidin-1-yl)-2-methyl-1-((S)-tetrahydrofuran-3-yl)-1H-benzo[d]imidazol-5-yl)-1-(2,6-difluorophenyl)-6-oxo-1,6-dihydropyridazine-3-carboxamide] cannot be ordered by IC50: under 100 nM for the first, under 100 nM for the second.

`COCCn1c(C)nc2c(N3CC[C@H](N)C3)c(NC(=O)c3ccc(=O)n(-c4c(F)cccc4F)n3)ccc21` [Example 89, (S)-N-(4-(3-aminopyrrolidin-1-yl)-1-(2-methoxyethyl)-2-methyl-1H-benzo[d]imidazol-5-yl)-1-(2,6-difluorophenyl)-6-oxo-1,6-dihydropyridazine-3-carboxamide] and `CCn1ncc2c(N3CC[C@@H](N)C3)c(NC(=O)c3ccc(=O)n(-c4c(F)cccc4F)n3)cc(F)c21` [Example 289, (R)-N-(4-(3-aminopyrrolidin-1-yl)-1-ethyl-7-fluoro-1H-indazol-5-yl)-1-(2,6-difluorophenyl)-6-oxo-1,6-dihydropyridazine-3-carboxamide] cannot be ordered by IC50: under 100 nM for the first, under 100 nM for the second.

`Cn1ncc2c(N3CCC(N)CC3)c(NC(=O)c3ccc(=O)n(-c4c(F)cccc4F)n3)cc(F)c21` [Example 168, N-(4-(4-aminopiperidin-1-yl)-7-fluoro-1-methyl-1H-indazol-5-yl)-1-(2,6-difluorophenyl)-6-oxo-1,6-dihydropyridazine-3-carboxamide] and `NC1CCN(c2c(NC(=O)c3ccc(=O)n(-c4c(F)cccc4F)n3)ccc3c2cnn3[C@H]2CCOC2)CC1` [Example 266, (S)-N-(4-(4-aminopiperidin-1-yl)-1-(tetrahydrofuran-3-yl)-1H-indazol-5-yl)-1-(2,6-difluorophenyl)-6-oxo-1,6-dihydropyridazine-3-carboxamide] cannot be ordered by IC50: under 100 nM for the first, under 100 nM for the second.

Compared with `COc1cccc(Cl)c1-c1nccc(C(=O)Nc2cc(F)ccc2N2C[C@H]3C[C@@H]2CN3)c1F` [Example 6, N-(2-((1R,4R)-2,5-diazabicyclo[2.2.1]heptan-2-yl)-5-fluorophenyl)-2-(2-chloro-6-methoxyphenyl)-3-fluoroisonicotinamide], `C[C@@H]1CN(c2c(NC(=O)c3ccc(=O)n(-c4c(F)cccc4F)n3)ccc3nn(C45CCC(CC4)CC5)cc23)C[C@@H]1N` [Example 304, N-(4-((3R,4R)-3-amino-4-methylpyrrolidin-1-yl)-2-(bicyclo[2.2.2]octan-1-yl)-2H-indazol-5-yl)-1-(2,6-difluorophenyl)-6-oxo-1,6-dihydropyridazine-3-carboxamide] is lower in IC50: 100 to 1000 nM for the first, under 100 nM for the second. The second is the more potent here.

`C[C@@H]1CN(c2c(NC(=O)c3ccc(=O)n(-c4c(F)cccc4F)n3)ccc3nn(C45CC6CC(CC(C6)C4)C5)cc23)C[C@@H]1N` [Example 305, N-(2-((3S,5S,7S)-adamantan-1-yl)-4-((3R,4R)-3-amino-4-methylpyrrolidin-1-yl)-2H-indazol-5-yl)-1-(2,6-difluorophenyl)-6-oxo-1,6-dihydropyridazine-3-carboxamide] and `[2H]C([2H])([2H])C([2H])(n1ncc2c(N3C[C@H](N)C4(CC4)C3)c(NC(=O)c3ccc(=O)n(-c4c(F)cccc4F)n3)ccc21)C([2H])([2H])[2H]` [Example 276, (R)-N-(4-(7-amino-5-azaspiro[2.4]heptan-5-yl)-1-(propan-2-yl-d7)-1H-indazol-5-yl)-1-(2,6-difluorophenyl)-6-oxo-1,6-dihydropyridazine-3-carboxamide] cannot be ordered by IC50: under 100 nM for the first, under 100 nM for the second.

Source: patent publication US20250122174A1 (Shenzhen Yuanli Shenwan Innovative Medicine Co., Ltd., priority 2022, published 2025)
